According to a compilation of properties of binary mixtures (doi:10.1016/j.molliq.2019.110987):

Test: xn = mol fraction of the nth substance listed
Conditions: 100 kPa

CCCC[P+](C)(CCCC)CCCC.COS(=O)(=O)[O-] + CN(C)C=O
Conditions | speed of sound [m/s] | viscosity [mPa·s]
293.15 K, x1 = 0.0474 | 1486.7 | 1.774
293.15 K, x1 = 0.0765 | 1492.6 | 2.681
293.15 K, x1 = 0.1106 | 1502.8 | 3.495
293.15 K, x1 = 0.1508 | 1513.1 | 5.02
293.15 K, x1 = 0.1991 | 1518.1 | 6.59
293.15 K, x1 = 0.2582 | 1529.5 | 12.72
293.15 K, x1 = 0.5542 | 1551.2 | 145.3
293.15 K, x1 = 0.6717 | 1554.1 | 246
293.15 K, x1 = 0.7768 | 1557.2 | 368
293.15 K, x1 = 0.8253 | 1559.8 | 439
293.15 K, x1 = 0.8837 | 1560.2 | 532
293.15 K, x1 = 1 | 1563.7 | 729
298.15 K, x1 = 0.0474 | 1472.5 | 1.934
298.15 K, x1 = 0.0765 | 1482.5 | 3.021
298.15 K, x1 = 0.1106 | 1491.5 | 4.201
298.15 K, x1 = 0.1508 | 1499.4 | 5.71
298.15 K, x1 = 0.1991 | 1506.2 | 9.12
298.15 K, x1 = 0.2582 | 1511.1 | 17.12
298.15 K, x1 = 0.3321 | 1523.3 | 24.22
298.15 K, x1 = 0.4272 | 1529.1 | 41
298.15 K, x1 = 0.5542 | 1535.5 | 80.9
298.15 K, x1 = 0.6717 | 1538.1 | 164.4
298.15 K, x1 = 0.7768 | 1540.5 | 267
298.15 K, x1 = 0.8253 | 1542.3 | 315
298.15 K, x1 = 0.8837 | 1544 | 389
298.15 K, x1 = 0.9362 | 1545 | 445
303.15 K, x1 = 0.0474 | 1453.5 | 1.154
303.15 K, x1 = 0.1106 | 1471.3 | 3.824
303.15 K, x1 = 0.1508 | 1479.2 | 4.91
303.15 K, x1 = 0.1991 | 1487.8 | 5.73
303.15 K, x1 = 0.2582 | 1497.1 | 11.88
303.15 K, x1 = 0.3321 | 1503.3 | 15.34
303.15 K, x1 = 0.4272 | 1510.1 | 31.14
303.15 K, x1 = 0.5542 | 1519.2 | 44.8
303.15 K, x1 = 0.6717 | 1520.1 | 115.1
303.15 K, x1 = 0.7768 | 1523.5 | 192.4
303.15 K, x1 = 0.8253 | 1525.4 | 233
303.15 K, x1 = 0.9362 | 1528.2 | 325
303.15 K, x1 = 1 | 1529.6 | 381
308.15 K, x1 = 0.0474 | 1434.9 | 2.009
308.15 K, x1 = 0.0765 | 1444.1 | 2.042
308.15 K, x1 = 0.1106 | 1452.2 | 3.858
308.15 K, x1 = 0.1508 | 1461.5 | 4.52
308.15 K, x1 = 0.1991 | 1470.1 | 5.96
308.15 K, x1 = 0.2582 | 1479.6 | 10.08
308.15 K, x1 = 0.3321 | 1485.8 | 13.81
308.15 K, x1 = 0.4272 | 1495.1 | 26.52
308.15 K, x1 = 0.5542 | 1501.1 | 37.9
308.15 K, x1 = 0.7768 | 1507 | 140.5
308.15 K, x1 = 0.8253 | 1509.1 | 170.5
308.15 K, x1 = 0.8837 | 1510.8 | 201
308.15 K, x1 = 0.9362 | 1513.8 | 242
308.15 K, x1 = 1 | 1514.3 | 286
313.15 K, x1 = 0.0765 | 1426.1 | 2.915
313.15 K, x1 = 0.1106 | 1433.2 | 3.012
313.15 K, x1 = 0.1508 | 1444.1 | 4.451
313.15 K, x1 = 0.1991 | 1452.6 | 5.02
313.15 K, x1 = 0.2582 | 1460.2 | 8.85
313.15 K, x1 = 0.3321 | 1469.2 | 13.52
313.15 K, x1 = 0.4272 | 1479.1 | –
313.15 K, x1 = 0.5542 | 1487.8 | 32.59
313.15 K, x1 = 0.6717 | 1489.8 | 66.5
313.15 K, x1 = 0.7768 | 1491.1 | 107.4
313.15 K, x1 = 0.8253 | 1494.8 | 127.5
313.15 K, x1 = 0.8837 | 1496.5 | 152.2
313.15 K, x1 = 0.9362 | 1497.5 | 182.7
318.15 K, x1 = 0.0474 | 1399.2 | 0.955
318.15 K, x1 = 0.0765 | 1409.7 | 1.855
318.15 K, x1 = 0.1106 | 1416.3 | 2.982
318.15 K, x1 = 0.1508 | 1425.5 | 4.147
318.15 K, x1 = 0.1991 | 1434.9 | 6.04
318.15 K, x1 = 0.4272 | 1463.7 | 20.74
318.15 K, x1 = 0.5542 | 1471.8 | 28.42
318.15 K, x1 = 0.6717 | 1475.1 | –
318.15 K, x1 = 0.7768 | 1478.2 | 81.3
318.15 K, x1 = 0.8253 | 1480.1 | 106.5
318.15 K, x1 = 0.8837 | 1482.6 | 127.4
318.15 K, x1 = 0.9362 | 1484.1 | 149.6
318.15 K, x1 = 1 | 1485.7 | 169.1
323.15 K, x1 = 0.0474 | 1382.2 | 1.897
323.15 K, x1 = 0.0765 | 1392.5 | 2.214
323.15 K, x1 = 0.1106 | 1398.2 | 2.469
323.15 K, x1 = 0.1991 | 1417.7 | 4.5
323.15 K, x1 = 0.2582 | 1425.1 | 9.48
323.15 K, x1 = 0.3321 | 1436.2 | 14.54
323.15 K, x1 = 0.4272 | 1445.5 | 19.56
323.15 K, x1 = 0.5542 | 1456 | 25.19
323.15 K, x1 = 0.6717 | 1461.6 | 43.1
323.15 K, x1 = 0.7768 | 1464.9 | –
323.15 K, x1 = 0.8253 | 1466.6 | 100.4
323.15 K, x1 = 0.9362 | 1471.7 | 123
323.15 K, x1 = 1 | 1472 | 133.4
